Drawing on US7923579B2, “Tricyclic hydroxamate and benzamide derivatives, compositions and methods” (Exonhit Therapeutics S.A., priority 2003, dated 2011), this text covers IC50 and melting point for six compounds.

Series [1] relates to HDAC activity of Hela (human cervical cancer cell line) cells nuclear extract. Nature of the series: HDAC Fluorescent Activity Assay (Biomol Fluor de Lys substrate) with Hela nuclear extract. The note with it: read-out: IC50 (dose of compound leading to 50% of HDAC activity), Hela nuclear extract 5 μg, room temperature 0.5 h. The series is classed as biochemical. The source says:
Therefore, a fast, non isotopic method has been chosen that relies on a fluorescent HDAC substrate. This assay is a two step enzymatic reaction. The substrate used is a peptidic substrate with a ε-acetylated lysyl moiety followed by a 4-methylcoumarin-7-amide (AMC) moiety at their carboxy terminus. In the first reaction catalysed by HDACs, acetate is released from ε-acetylated lysine residue. In the second reaction, the deacetylated peptides are recognized as substrate by trypsin, which cleaves the deacetylated peptide after the lysine residue. This cleavage releases the AMC and the fluorescence is monitored by a fluorometer.
In order to evaluate the effect of one compound on HDAC activity, the HDAC Fluorescent Activity Assay/Drug Discovery Kit® developed by Biomol and based on the two step enzymatic reaction described above was used with modifications. The substrate of the Biomol assay, called Fluor de Lys™, comprises an acetylated lysine side chain with an AMC moiety.
Then, 5 μg of Hela (human cervical cancer cell line) cells nuclear extract is added in each well. The enzymatic reaction is initiated by the addition of the diluted Fluor de Lys™ substrate and the microplate is incubated at room temperature (e.g. 25° C.) for 0.5 h. In order to stop the reaction and to produce the fluorophore release, 50 μl of the Fluor de Lys™ Developer solution is added in each well and the microplate is incubated at room temperature (e.g. 25° C.) for 0.25 h. Finally, the fluorescence is measured by a fluorimeter (Fluoroskan Ascent FL, Thermolabsystem) at excitation wavelength of 360 nm and emission wavelength of 460 nm.

A further series has as its system HDAC. Conditions: read-out: HDAC activity is inhibited (reported concentration); depending of the HDAC activity assay used; cited from earlier work.

Molecules are shown by their SMILES.

`CC1(C)CCC(C)(C)c2cc(C(F)(F)C(=O)NCc3ccc(C(=O)NO)cc3)ccc21` [EHT 7800, 4-((2,2-Difluoro-2-(1,2,3,4-tetrahydro-1,1,4,4-tetramethylnaphthalen-7-yl)acetamido)methyl)-N-hydroxybenzamide]: the IC50 in series [1] was found to be 4100 nM.

For the compound `CC1(C)CCC(C)(C)c2cc(C(=O)Nc3ccc(C(=O)NO)cc3)ccc21` [EHT 3741, N-(4-(Hydroxycarbamoyl)phenyl)-5,6,7,8-tetrahydro-5,5,8,8-tetramethylnaphthalene-2-carboxamide], in series [1], the IC50 was 5130 nM.

For the compound `CC1(C)CCC(C)(C)c2cc(NC(=O)c3ccc(C(=O)NO)cc3)ccc21` [EHT 7706, N-(1,2,3,4-Tetrahydro-1,1,4,4-tetramethylnaphthalen-6-yl)-N′-hydroxyterephthalamide], the melting point amounted to 211 °C. Moreover, the IC50 in series [1] came out at 1180 nM.

Take `CC(/C=C/C(=O)NO)=C\[C@@H](C)C(=O)c1ccc(N(C)C)cc1` [TSA, Trichostatin A]: the IC50 in the series with HDAC was 1.4 to 2.6 nM.

Turning to `CC1(C)CCC(C)(C)c2cc(C(=O)Nc3ccc(C(F)(F)C(=O)NO)cc3)ccc21` [EHT 4996, N-(4-((hydroxycarbamoyl)difluoromethyl)phenyl)-5,6,7,8-tetrahydro-5,5,8,8-tetramethylnaphthalene-2-carboxamide], the melting point worked out at 224.2 °C.

On to `CC1(C)CCC(C)(C)c2cc(C(F)(F)C(=O)Nc3ccc(C(=O)NO)cc3)ccc21` [EHT 9299, 4-(2,2-Difluoro-2-(1,2,3,4-tetrahydro-1,1,4,4-tetramethylnaphthalen-7-yl)acetamido)-N-hydroxybenzamide], for which the IC50 in series [1] was 424 nM.

The term melting point denotes the temperature, or range, at which the solid turns liquid.
